# Experimental data reported in patent publication US20150315554A1, “CELL LINES EXPRESSING CFTR AND METHODS OF USING THEM” (Chromocell Corporation, priority 2009, published 2015).
# Where “and” joins values, the source holds several entries; their conditions need not be identical. Equal values may be shown once.
# System: human CFTR
# Experiment: high-throughput compatible fluorescence membrane potential assay, forskolin dose-response in stable CFTR-expressing CHO cell lines
# Format: cell-based
# Settings: stable CFTR-expressing CHO cell line, 15,000 cells/well, 384-well plate, membrane potential dye
# Procedure: CHO cell lines stably expressing CFTR were maintained under standard cell culture conditions in Ham's F12 medium supplemented with 10% fetal bovine serum and glutamine. On the day before assay, the cells were harvested from stock plates and plated into black clear-bottom 384 well assay plates at a density that is sufficient to attain 90% confluency on the day of the assay. The assay plates were maintained in a 37° C. cell culture incubator under 5% CO2 for 22-24 hours. The media was then removed from the assay plates and blue membrane potential dye (Molecular Devices Inc.) diluted in loading buffer (137 mM NaCl, 5 mM KCl, 1.25 mM CaCl2, 25 mM HEPES, 10 mM glucose) was added and allowed to incubate for 1 hour at 37° C. The assay plates were then loaded on a fluorescent plate reader (Hamamatsu FDSS) and a cocktail of forskolin and IBMX dissolved in compound buffer (137 mM sodium gluconate, 5 mM potassium gluconate, 1.25 mM CaCl2, 25 mM HEPES, 10 mM glucose) was added. For forskolin dose-response experiments, cells of the produced stable CFTR-expressing cell lines, plated at a density of 15,000 cells/well in a 384-well plate were challenged with increasing concentration of forskolin, a known CFTR agonist. The cellular response as a function of changes in cell fluorescence was monitored over time by a fluorescent plate reader (Hamamatsu FDSS).
smiles,measurement,value
C=C[C@@]1(C)CC(=O)[C@]2(O)[C@@]3(C)[C@@H](O)CCC(C)(C)[C@@H]3[C@H](O)[C@H](OC(C)=O)[C@@]2(C)O1 [forskolin],EC50,256 nM and ~250 nM
